From patent publication US12421257B2, “Compositions and methods for inhibiting group II intron RNA” (YALE UNIVERSITY, priority 2018, dated 2025)
In brackets after ≈: the same amount, converted by molar mass.

Tests used:
[1] = biological target: ai5γ group II intron; test: Radioanalytic self-splicing assay of SE RNA (Ki); format: biochemical, Saccharomyces cerevisiae; conditions: 8 mM MgCl2, 100 mM KCl, pH 7.5, 30° C.
Procedure: Internally labeled SE RNA (2 nM) was incubated with various concentrations of inhibitor compound under near-physiological conditions (in 50 mM MOPS, pH 7.5, 8 mM MgCl2, 100 mM KCl) at 30° C. Aliquots at different time points were quenched and analyzed on 5% denaturing polyacrylamide gel as previously described (Daniels et al., 1996, Journal of molecular biology, 256:31-49). Data were fit to a single-exponential equation to determine the first order rate constants (kobs). The latter were then plotted against the concentration of the inhibitor and fit to the equation for non-competitive inhibition to determine Ki values: kobs=kmax/(1+[I]/Ki), where kobs and kmax are the first order rate constants measured in the presence and in the absence of the inhibitor, respectively, [I] is the concentration of the inhibitor and Ki is the inhibition constant. Experiments were performed four times for API-014, three times for APY-090, Intronistat A, and Intronistat B and twice for the remaining compounds to ensure reproducibility. Data represent average±s.e.m.

[2] = system: C. parapsilosis; test: MIC determination against C. parapsilosis; format: cell-based, Candida parapsilosis; conditions: Lodderomyces parapsilosis; RPMI-1640, 35° C. or 37° C., turbidity after 24 and 48 hours
Procedure: Minimal inhibitory concentrations (MICs) for C. parapsilosis were determined in a final volume of 100 μl. Fresh stock solutions of control antifungal drugs (Amphotericin B and Itraconazole) and of test compounds were prepared at 3.2 mg/ml and at 12.8 mg/ml respectively in DMSO. After placing the stock in the first well, solutions of test compounds and antifungal controls were serially diluted 1:2 with DMSO into the first […] successive wells of a 12-well row on a 96-well plate (as described above). After dilution, 2.5 μl from each of these 10 wells were transferred onto a separate 96-well plate and diluted with 122.5 μl of RPMI-1640 medium (Sigma). Wells 11 and 12 contained 2.5 μl DMSO and 122.5 μl of RPMI-1640 as a positive growth control (no compound) and sterility control (no inoculum added). A 50 μl volume was taken from each of the RPMI dilutions (wells 1-12) and transferred to the wells of a third 96-well plate (assay plate), where they were mixed with an equal volume (50 μl) of freshly prepared inoculum of C. parapsilosis in RPMI-1640 medium, set at a density to provide the 0.5×10^3 to 2.5×10^3 colony forming units per 1 mL (except for the sterility control). Sterility control was mixed with 50 μl of sterile medium.
The final concentration range of the assay was 0.25-128 μg/ml for test compounds and 0.0625-32 μg/ml for Amphotericin B and Itraconazole. The final concentration of DMSO was 1%. The assay plate was incubated at 35° C. or 37° C. and visually analyzed for turbidity after 24 and 48 hours of incubation. The lowest compound concentration at which no growth was apparent is reported as the MIC. All experiments were performed in triplicate.

[3] = system: HEK-293T cells; test: Cytotoxicity in HEK-293T cells (Cell Titer Glo); format: cell-based, human; conditions: Homo sapiens, cytotoxicity, 24 hours with compound, read-out: IC50 HEK-293
Procedure: HEK-293T cells were cultured in Dulbecco's Modified Eagle's Medium (DMEM) (Gibco) supplemented with 10% Fetal Bovine Serum (FBS, Gibco) and 100 U/ml of Penicillin-Streptomycin (Gibco) at 37° C. and 5% CO2. For the cytotoxicity experiments, cells were aliquoted into black 96-well plates with a clear bottom (Corning 3603) at a concentration of 10,000 cells per well. The cells were grown at 37° C., 5% CO2 for 5-6 hours, then the medium was replaced with the same medium without FBS and cells were grown at 37° C., 5% CO2 for 24 hours. Freshly prepared stock solutions of test compounds (12.8 mg/ml in DMSO) were serially diluted 1:2 with DMSO into the first 11 successive wells of a 12-well row on a 96-well plate as described above. Well 12 was used as a growth control (no compound). […] After incubation, cell viability was determined using the luminescent Cell Titer Glo cell viability assay (Promega), in which 100 μl of the assay reagent was added to each well of the assay plate. After gentle shaking for 7-10 minutes, the plates were analyzed on a Synergy H1 plate reader (BioTek). Luminescence was plotted against the compound concentration and IC50 values were determined by fitting the data to a 4-parameter logistic function c+(d−c)/(1+(x/a)^b), where a is the IC50, b is the slope parameter, c is the minimum response and d is the maximum response. Experiments were replicated to ensure reproducibility.

[4] = system: ai5γ group II intron (D135 ribozyme); test: Fluorescent D135 ribozyme cleavage assay (IC50); format: biochemical, Saccharomyces cerevisiae; conditions: D135 ribozyme cleavage of substrate 17/2 DL, 100 mM MgCl2, 500 mM KCl, 37° C., 10 minutes
Procedure: The D135 ribozyme (Su et al., 2005, Nucleic Acids Res, 33:6674-6687), fluorescently labeled oligo substrate 17/2 DL (FIG. 1A-FIG. 1D) (both at 20 nM final concentrations in 50 mM MOPS, pH 7.0, 100 mM MgCl2, 0.5M KCl), and the test compounds (final concentration of 10 μM in 50 mM MOPS, pH 7.0, 100 mM MgCl2, 0.5M KCl) were aliquoted onto black non-binding 384-well plates (Corning 3757) using the multidrop combi (ThermoFisherScientific) and pintool (V & P Scientific). The reaction mixtures were incubated at 37° C. for 45 minutes, then the reaction was quenched with 100 mM EDTA and fluorescence intensity was analyzed on a Tecan Infinite multimode plate reader (λex 520 nm, λem 560 nm, 5 nm bandwidth). Data were normalized to untreated wells and wells lacking the D135 ribozyme, and percent of inhibition was calculated using ActivityBase (IDBS). The Z′-factor was calculated as described (Zhang et al., 1999, J Biomol Screen, 4:67-73): Z′=1−3×(σp+σn)/|μp−μn|, • where μp and σn are mean value and standard deviation for the positive control (substrate only), and where μn and σn are mean value and standard deviation for the negative control (no compound). The average Z′-factor from the screen was 0.83±0.03. IC50 Measurement for the Small Molecule Inhibition of the D135 Ribozyme Cleavage Reaction.
Black 96-well plates (Corning 3695) were filled with 50 μl of solution containing 20 nM D135 ribozyme, 20 nM double-labeled substrate 17/2 DL and small molecule inhibitor in 50 mM MOPS, pH 7.0, 100 mM MgCl2 and 500 mM KCl. Small molecule inhibitors were tested at 19 different concentrations ranging from 5 nM to 1 mM. Plates were incubated at 37° C. for 10 minutes, then reaction mixtures were quenched with 100 mM EDTA and analyzed on the Synergy H1 plate reader (BioTek). Each experiment was performed in triplicate. Data were fit to a 4-parameter logistic function c+(d−c)/(1+(x/a)^b), where a is the IC50, b is the slope parameter, c is the minimum response and d is the maximum response. Data are reported as average±s.e.m

Compound	Ki [1] [µM]	MIC [2] [µg/mL]	IC50 [3] [µg/mL]	IC50 [4] [µM]	IC50 ([4]; listed as compound 1) [µM]
O=C1/C(=C/c2cc(O)c(O)c(O)c2)Oc2cc(O)ccc21 [APY-013]	16.5	32 (≈ 112 µM)	19	16.7	
O=C(c1cc(O)c(O)c(O)c1)c1cc2cc(-c3ccc(C(F)(F)F)nc3)ccc2o1 [APY-097, 5-({5-[6-(Trifluoromethyl)pyridin-3-yl]-1-benzofuran-2-yl}carbonyl)benzene-1,2,3-triol]	3.9 ± 0.5	8 (≈ 19.3 µM)	5.4 ± 0.6	2.8 ± 0.2	
O=C(N/N=C/c1ccc(-c2ccc(Br)cc2)o1)c1cc(O)c(O)c(O)c1 [NED-2038, (E)-N′-((5-(4-bromophenyl)furan-2-yl)methylene)-3,4,5-trihydroxybenzohydrazide]	1.7	32 (≈ 76.7 µM)	1.1	2.7 ± 0.5	
COc1cc(/C=N/NC(=O)c2cc(O)c(O)c(O)c2)cc(O)c1O [APY-038]	1.1	8 (≈ 23.9 µM)	15.9	1.3	
COc1cccc(/C=N/NC(=O)c2cc(O)c(O)c(O)c2)c1O [Compound 2]	8	32 (≈ 101 µM)	34	7.3	
COc1cc(CCC(=O)c2cc(O)c(O)c(O)c2)cc(OC)c1OC [APY-069]	29	32 (≈ 91.9 µM)	> 128	27	
O=C1/C(=C/c2cc(O)c(O)c(O)c2)Oc2cc(O)cc(O)c21 [Compound 1, reference compound]	2.1 ± 0.6			2.3 ± 0.4	2
O=C1/C(=C/c2ccc(B(O)O)cc2)Oc2cc(O)cc(O)c21 [APY-006]	55				
CCN(CC)Cc1ccc(-c2ccc(-c3nc(-c4cc(O)c(O)c(O)c4)cs3)cc2)cc1 [APY-092]		16 (≈ 35.8 µM)	24.8	1.3	
O=C1/C(=C/c2cc(F)c(O)c(F)c2)Oc2cc(O)cc(O)c21 [APY-010]	140	> 128	0.55		
COc1cc(/C=C2\Oc3cc(O)cc(O)c3C2=O)cc(OC)c1OC [APY-003]		> 128	> 64	> 500	
Cc1[nH]c(/C=C/C(=O)c2cc(O)c(O)c(O)c2)c(C)c1C(=O)N1CCN(Cc2ccc(F)cc2)CC1 [NED-2040]		8 (≈ 16.2 µM)	7.5	> 1000	
COc1cccc(/C=N/NC(=O)c2ccc(B(O)O)cc2)c1O [APY-018]	660				
CN1CCC(CNC(=O)c2ccc3oc(C(=O)c4cc(O)c(O)c(O)c4)cc3c2)CC1 [NED-2023, N-((1-methylpiperidin-4-yl)methyl)-2-(3,4,5-trihydroxybenzoyl)-benzofuran-5-carboxamide]		16 (≈ 37.7 µM)	36	6 ± 2	
